Where two headings read alike, the source gives them in different places. Where a SMILES comes first, the peptide text is derived from it. [ ]: non-standard residue; d: D form. The star is where a group is joined. Bz = O=C(c1ccccc1)*; NPr2 = CCCN(CCC)*
System: human hair follicles
Format: cell-based
Details: hair shaft elongation after 4 days versus vehicle (DMSO) control
Excerpt: Microdissection of human hair follicles: Human scalp skin samples containing mainly anagen VI hair follicles were obtained from elective face-lift plastic surgery. Informed consent was obtained. Hair follicles were truncated below the dermis, while the remaining hair bulb was separated from the dermal/subcutaneous tissue and placed in appropriate culture medium. Before the experiment, each hair follicle underwent a stringent selection, that is operated by controlling the hair shaft elongation following 18 hrs of organ culture, as well as the general organ morphology. Only the hair follicles that grew at least 0.19 ± 0.02 mm/18 hrs were used for the experiment.
Treatment: The hair growth inhibition of Bz-Gly-His-D-Phe-Arg-D-Trp-N(Pr)2 *2MSA in the concentrations as indicated in table 2 was assessed versus control, i.e. versus a treatment with the vehicle (i.e. DMSO) alone. Evaluation of hair growth inhibition: pictures of the hair follicles in culture were taken at baseline and after 4 days and the hair shaft elongation was measured to determine the hair growth. Table 2: Results

CCCN(CCC)C(=O)[C@@H](Cc1c[nH]c2ccccc12)NC(=O)[C@H](CCCNC(=N)N)NC(=O)[C@@H](Cc1ccccc1)NC(=O)[C@H](Cc1c[nH]cn1)NC(=O)CNC(=O)c1ccccc1 [Bz-Gly-His-D-Phe-Arg-D-Trp-N(Pr)2 *2MSA] (Bz-GH[dF]R[dW]-NPr2)
% hair growth inhibition (1 nM, p = 0.067 (paired t-test)): 12%
% hair growth inhibition (100 nM, p = 0.019 (paired t-test)): 29%
